Data as given in patent US12390440B2, “Immunomodulating trifluoromethyl-aminal azalides” (Zoetis Services LLC, priority 2020, dated 2025).

Legend:
[1] = tested on: TNF-α; experiment: Bovine whole blood assay, LPS-induced TNF-α; assay type: cell-based; conditions: Bos taurus, fresh whole bovine blood, LPS 1 μg/mL
Experimental: (§1) (protected from light) for 30 minutes.

[2] = tested on: IL-1β; experiment: Bovine whole blood assay, IL-1β; assay type: cell-based; conditions: overstimulation of IL-1β, perceived cellular toxicity concentration;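 also: compound concentration at which rising IL-1β release signals cytotoxicity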
Experimental: as §1

[3] = tested on: IL-6; experiment: Bovine whole blood assay, IL-6; assay type: cell-based; conditions: Bos taurus, fresh whole bovine blood, LPS 1 μg/mL
Experimental: as §1

[4] = tested on: BRD pathogens, M. haemolytica and P. multocida; experiment: MIC screening panel, BRD pathogens (CLSI broth micro-dilution); conditions: read-out: MIC flag (*) at Ex #

Structure (SMILES)	IC50 [1]	IL-1β OS of LPS [2]	IC50 [3]	MIC [4]
CC[C@H]1OC(=O)[C@H](C)[C@@H](O[C@H]2C[C@@](C)(OC)[C@](O)(CNC(CO)CO)[C@H](C)O2)[C@H](C)[C@@H](O[C@@H]2O[C@H](C)C[C@H]3[C@H]2OC(C(F)(F)F)N3C)[C@](C)(O)C[C@@H](C)CN[C@H](C)[C@@H](O)[C@]1(C)O (stereo partly drawn) [Example A-4, (2R,3S,4R,5R,8R,10R,11R,12S,13S,14R)-13-(((2R,4R,5S,6S)-5-(((1,3-dihydroxypropan-2-yl)amino)methyl)-5-hydroxy-4-methoxy-4,6-dimethyltetrahydro-2H-pyran-2-yl)oxy)-11-(((3aR,4S,6R,7aS)-1,6-dimethyl-2-(trifluoromethyl)hexahydro-2H-pyrano[4,3-d]oxazol-4-yl)oxy)-2-ethyl-3,4,10-trihydroxy-3,5,8,10,12,14-hexamethyl-1-oxa-6-azacyclopentadecan-15-one]	40 µM	80 µM	200 µM	–
CC[C@H]1OC(=O)[C@H](C)[C@@H](O[C@H]2C[C@@](C)(OC)[C@](O)(CNCCN3CCCCC3=O)[C@H](C)O2)[C@H](C)[C@@H](O[C@@H]2O[C@H](C)C[C@H]3[C@H]2OC(C(F)(F)F)N3C)[C@](C)(O)C[C@@H](C)CN[C@H](C)[C@@H](O)[C@]1(C)O (stereo partly drawn) [Example A-15, (2R,3S,4R,5R,8R,10R,11R,12S,13S,14R)-11-(((3aR,4S,6R,7aS)-1,6-dimethyl-2-(trifluoromethyl)hexahydro-2H-pyrano[4,3-d]oxazol-4-yl)oxy)-2-ethyl-3,4,10-trihydroxy-13-(((2R,4R,5S,6S)-5-hydroxy-4-methoxy-4,6-dimethyl-5-(((2-(2-oxopiperidin-1-yl)ethyl)amino)methyl)tetrahydro-2H-pyran-2-yl)oxy)-3,5,8,10,12,14-hexamethyl-1-oxa-6-azacyclopentadecan-15-one]	23 µM	40 µM	–	< 64 µg/mL
CC[C@H]1OC(=O)[C@H](C)[C@@H](O[C@H]2C[C@@](C)(OC)[C@](O)(CNCCNC(C)=O)[C@H](C)O2)[C@H](C)[C@@H](O[C@@H]2O[C@H](C)C[C@H]3[C@H]2OC(C(F)(F)F)N3C)[C@](C)(O)C[C@@H](C)CN[C@H](C)[C@@H](O)[C@]1(C)O (stereo partly drawn) [Example A-22, N-(2-((((2S,3S,4R,6R)-6-(((2R,3S,4R,5R,8R,10R,11R,12S,13S,14R)-11-(((3aR,4S,6R,7aS)-1,6-dimethyl-2-(trifluoromethyl)hexahydro-2H-pyrano[4,3-d]oxazol-4-yl)oxy)-2-ethyl-3,4,10-trihydroxy-3,5,8,10,12,14-hexamethyl-15-oxo-1-oxa-6-azacyclopentadecan-13-yl)oxy)-3-hydroxy-4-methoxy-2,4-dimethyltetrahydro-2H-pyran-3-yl)methyl)amino)ethyl)acetamide]	62 µM	40 µM	–	< 64 µg/mL
CC[C@H]1OC(=O)[C@H](C)[C@@H](O[C@H]2C[C@@](C)(OC)[C@](O)(CNCCCNS(C)(=O)=O)[C@H](C)O2)[C@H](C)[C@@H](O[C@@H]2O[C@H](C)C[C@H]3[C@H]2OC(C(F)(F)F)N3C)[C@](C)(O)C[C@@H](C)CN[C@H](C)[C@@H](O)[C@]1(C)O (stereo partly drawn) [Example A-23, N-(3-((((2S,3S,4R,6R)-6-(((2R,3S,4R,5R,8R,10R,11R,12S,13S,14R)-11-(((3aR,4S,6R,7aS)-1,6-dimethyl-2-(trifluoromethyl)hexahydro-2H-pyrano[4,3-d]oxazol-4-yl)oxy)-2-ethyl-3,4,10-trihydroxy-3,5,8,10,12,14-hexamethyl-15-oxo-1-oxa-6-azacyclopentadecan-13-yl)oxy)-3-hydroxy-4-methoxy-2,4-dimethyltetrahydro-2H-pyran-3-yl)methyl)amino)propyl)methanesulfonamide]	134 µM	40 µM	–	< 64 µg/mL
